Results published in US20060199978A1, “Compounds having serotonin 5-ht17 receptor antagonist activity and muscarinic m4 receptor agonist activity and their use in the treatment of psychotic disorders” (priority 2003, published 2006).
Where two headings read alike, the source gives them in different places.

Tests used:
[1] = target: T1, M4 muscarinic receptors (N1E-115 cells) (Mus musculus, UniProt P32211); assay: Homogenate assay for c-AMP production (PACAP-stimulated); assay type: biochemical; conditions: N1E-115 homogenate; for reduction of c-AMP levels (agonist activity): PACAP 0.1 nM stimulation
T1 construct: endogenous in cells; host or cells: mouse N1E-115 cells (homogenate)
T1 sequence (P32211 1-479): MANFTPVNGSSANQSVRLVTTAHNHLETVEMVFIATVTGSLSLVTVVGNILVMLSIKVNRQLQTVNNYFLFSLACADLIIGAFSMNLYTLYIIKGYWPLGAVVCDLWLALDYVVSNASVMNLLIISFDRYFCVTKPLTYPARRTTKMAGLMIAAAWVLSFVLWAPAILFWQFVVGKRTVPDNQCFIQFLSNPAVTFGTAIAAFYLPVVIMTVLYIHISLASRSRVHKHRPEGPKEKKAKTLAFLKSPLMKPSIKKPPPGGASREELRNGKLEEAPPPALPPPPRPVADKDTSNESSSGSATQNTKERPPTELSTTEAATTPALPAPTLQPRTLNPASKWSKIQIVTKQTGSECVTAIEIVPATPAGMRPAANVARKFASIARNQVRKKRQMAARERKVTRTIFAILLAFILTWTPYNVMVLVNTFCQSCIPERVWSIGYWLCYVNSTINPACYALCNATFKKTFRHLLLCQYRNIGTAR
Method: N1E-115 cells were harvested by scraping and placed in Ribolyser tubes on dry ice. Ice cold buffer (0.5 ml) containing 50 mM Tris HCl, 0.4 mM EDTA and 0.4 mM EGTA (pH 7.4) was added to the tubes. The tubes were then placed in a Ribolyser and shaken at 4 g for 20 sec. The homogenate was then transferred to eppendorf tubes and was then centrifuged at 19,700 g for 30 min at 4° C. The pellet was resuspended in ice cold 50 mM Tris HCl (pH7.4) at a concentration of 50 mg ml^−1 wet weight of tissue. The homogenate was stored in aliquots at −70° C. Protein concentrations of the homogenates were determined using a Bio-Rad protein determination kit. The assay was carried out in a final assay volume of 120 μl containing 50 mM Tris HCl (pH7.4), 5 mM MgCl2 50 μM GTP, 200 μM ATP, 120 μM sucrose, 0.4 mM EDTA, 0.4 mM EGTA, 200 μM ascorbic acid, 20 μM papaverine, 200 μM rolipram, 10 μM vinpocetine, 10 mM phosphocreatinine, 0.4 mM DTT, 100 nM WAY 100635, 1 μM propranolol, 36 μg bacitracin, 4.8 U creatine phosphokinase, 3.6 KIU aprotinin. Homogenate (1 mgml^−1) was preincubated with the test compound in ice cold assay buffer for 10 min. PACAP (0.1 nM) was then added to the tubes. The tubes were then incubated at 30° C. for 20 min and then at 99° C. for 5 min. Levels of c-AMP in the tubes were measured using the Amersham Pharmacia Biotech Biotrak c-AMP enzymeimmunoassay kit.

human 5-HT7 receptors = target: T2, human 5-HT7 receptors (Homo sapiens, UniProt P34969); assay: 5-HT7 binding assay (3H-5CT); conditions: human 5-HT7 membrane, 3H-5CT 0.5 nM
T2 construct: purchased Euroscreen
Method: The compounds of the present invention were screened for binding affinity using membranes containing stably expressed human M4 muscarinic receptors or human 5-HT7 receptors.
Total volume 200 μl/well. Membrane concentration—human 5-HT7 membrane (purchased from Euroscreen)—6 μg/ml; ^3H-5CT 0.5 nM; Sample conc. 10 nM-300 μM; 8OH-DPAT Displacement Curve—1 nM-3 μM. The plates are incubated at 20° C. for 120 minutes in the dark to avoid any photo degradation. Membranes are harvested by rapid filtration using a vacuum manifold under 700 mbar pressure. The plates are washed 3 times with 200 ul/well of ice-cold wash buffer. Plates are dried at 40° C. for 1 hour (Higher CPMs are obtained when the filters are dried) 100 μl scintillation fluid is added to each well and cpm determined using a Microbeta scintillation counter.

[2] = target: T3, human M4 muscarinic receptors (Homo sapiens, UniProt P08173); assay: M4 binding assay (3H-NMS); conditions: human M4 membranes, 3H-NMS 0.25 nM
T3 construct: purchased NEN
T3 sequence (P08173 1-479): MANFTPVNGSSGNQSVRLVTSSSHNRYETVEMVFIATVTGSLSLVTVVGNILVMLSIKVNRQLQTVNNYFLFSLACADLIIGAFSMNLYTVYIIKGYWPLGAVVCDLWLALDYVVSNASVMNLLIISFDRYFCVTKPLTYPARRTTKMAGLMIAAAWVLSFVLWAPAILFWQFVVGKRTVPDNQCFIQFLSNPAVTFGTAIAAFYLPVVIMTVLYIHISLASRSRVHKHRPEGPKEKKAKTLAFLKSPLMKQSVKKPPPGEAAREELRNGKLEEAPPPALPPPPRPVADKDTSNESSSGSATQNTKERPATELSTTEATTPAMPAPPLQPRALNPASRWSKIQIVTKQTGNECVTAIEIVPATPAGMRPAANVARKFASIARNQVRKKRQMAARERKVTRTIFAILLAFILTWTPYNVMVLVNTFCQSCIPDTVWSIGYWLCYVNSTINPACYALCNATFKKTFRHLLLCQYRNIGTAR
Method: Total volume 200 μl/well. Membrane concentration—human M4 membranes (NEN)—8 μg/ml; ^3H-NMS 0.25 nM; Sample conc. 10 nM-300 μM; Atropine Displacement Curve—0.3 nM-1 μM.
The plates are incubated at 20° C. for 60 minutes in the dark to avoid any photo degradation. Membranes are harvested by rapid filtration using a vacuum manifold under 700 mbar pressure. The plates are washed 3 times with 200 ul per well of ice-cold wash buffer. Plates are dried at 40° C. for 1 hour, 100 μl scintillation fluid is added to each well and cpm determined using a Microbeta scintillation counter.

human D2 membrane = target: T4, human D2 membrane (Homo sapiens, UniProt P14416); assay: D2 binding assay (3H-spiperone); conditions: 3H-spiperone 0.5 nM
T4 construct: purchased Euroscreen
Method: Total volume 200 μl/well. Membrane concentration—human D2 membrane (purchased from Euroscreen)—10 μg/ml; ^3H-spiperone 0.5 nM; Sample conc. 10 nM-300 μM; Haloperidol Displacement Curve—1 nM-10 μM. The plates are incubated at 25° C. for 60 minutes in the dark to avoid any photo degradation.
Membranes are harvested by rapid filtration using a vacuum manifold under 700 mbar pressure. The plates are washed 3 times with 200 ul/well of ice-cold wash buffer. Plates are dried at 40° C. for 1 hour (Higher CPMs are obtained when the filters are dried). 100 μl scintillation fluid is added to each well and cpm determined using a Microbeta scintillation counter.

[3] = test system: amphetamine-induced hyper-activity in rats; assay: amphetamine-induced hyperactivity in rats; assay type: in vivo, rat; conditions: for Line Crossings (mean ± S.E.): amphetamine control 111.6 ± 6.4
Method: Male Long Evans rats (190-280 g) in each group of five were used. Amphetamine (1.0 mg/kg i.p.) was dissolved in saline, and test compounds were dissolved or suspended in 0.5% hydroxypropylmethylcellulose (HPMC) solution. All the test compounds were injected intraperitoneally in a volume of 0.1 ml/100 g, and control rats were treated with the respective vehicle. The plastic open-field box (40×40×40(H) cm) was used to measure the locomotor activity of rats. The locomotor activity was expressed as the number of line crossings marked on the floor of the test box at 20 cm square. Individual rats were placed in the test box just after the injection of amphetamine, and were allowed to habituate there for 10 min. The line crossings were counted over 15 min thereafter. The behavioural observation was conducted on two rats simultaneously using two test boxes. Test compounds were pretreated 30 min before the injection of amphetamine.

[4] = test system: apomorphine-induced deficits in PPI in rats; assay: apomorphine-induced deficits in prepulse inhibition (PPI); assay type: in vivo, rat; conditions: s.c. 25 minutes prior to apomorphine 0.5 mg/kg s.c.; Wistar rats
Excerpt: Male Wistar rats (Japan SLC Inc., Shizuoka, Japan) were used. They were housed in a light, humidity and temperature controlled environment maintained on a 12-hour/12-hour light/dark schedule (light on at 7 am) with food and water provided ad libitum. Four startle chambers (SR-LAB, San Diego Instruments, San Diego, Calif.) were placed in a sound-attenuated room. Each chamber consisted of Plexiglas cylinder 8.8 cm in diameter resting on a 12.7×20.3 cm Plexiglas stand. Acoustic stimuli and background noise were presented via a Supertweeter mounted 24 cm above the Plexiglas cylinder. Startle magnitude was detected and recorded by a microcomputer and interface assembly (San Diego Instruments) as transduced cylinder movement via a piezoelectric device mounted below the Plexiglas stand.
One day before drug testing, all rats were exposed to a “matching” startle session. Data from this session were used to assign rats to balanced groups according to their startle responses. […] Each session was approximately 20 minutes and consisted of 5 minutes of 70-dB background followed by five trial types, PULSE ALONE trial: a 120-dB 50 ms noise burst, PREPULSE trials which consisted of 20 ms noise bursts 3, 5, 10 dB above 70-dB background noise followed 100 ms later by a 120-dB 40 ms noise burst, NOSTIM trial: 100 ms of response was recorded during periods where no stimulus was presented. […]

chronic PCP-treated rats [5] = conditions: cited from earlier work
chronic PCP-treated rats [6] = assay: LCGU (2-DG) in chronic PCP rat model

T4 sequence (P14416 whole entry): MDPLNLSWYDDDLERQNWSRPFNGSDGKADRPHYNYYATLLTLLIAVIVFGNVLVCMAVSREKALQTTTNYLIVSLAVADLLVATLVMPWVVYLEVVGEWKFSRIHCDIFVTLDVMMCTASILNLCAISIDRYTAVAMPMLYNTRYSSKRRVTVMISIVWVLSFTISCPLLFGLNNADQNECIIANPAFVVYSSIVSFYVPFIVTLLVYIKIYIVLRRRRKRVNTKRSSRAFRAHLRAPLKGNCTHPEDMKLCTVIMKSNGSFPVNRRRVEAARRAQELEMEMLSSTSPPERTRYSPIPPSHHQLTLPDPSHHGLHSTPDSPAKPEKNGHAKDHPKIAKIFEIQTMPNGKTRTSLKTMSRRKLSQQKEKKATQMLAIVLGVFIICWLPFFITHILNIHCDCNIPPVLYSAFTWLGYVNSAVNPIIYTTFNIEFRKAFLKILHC
T2 sequence (P34969 whole entry): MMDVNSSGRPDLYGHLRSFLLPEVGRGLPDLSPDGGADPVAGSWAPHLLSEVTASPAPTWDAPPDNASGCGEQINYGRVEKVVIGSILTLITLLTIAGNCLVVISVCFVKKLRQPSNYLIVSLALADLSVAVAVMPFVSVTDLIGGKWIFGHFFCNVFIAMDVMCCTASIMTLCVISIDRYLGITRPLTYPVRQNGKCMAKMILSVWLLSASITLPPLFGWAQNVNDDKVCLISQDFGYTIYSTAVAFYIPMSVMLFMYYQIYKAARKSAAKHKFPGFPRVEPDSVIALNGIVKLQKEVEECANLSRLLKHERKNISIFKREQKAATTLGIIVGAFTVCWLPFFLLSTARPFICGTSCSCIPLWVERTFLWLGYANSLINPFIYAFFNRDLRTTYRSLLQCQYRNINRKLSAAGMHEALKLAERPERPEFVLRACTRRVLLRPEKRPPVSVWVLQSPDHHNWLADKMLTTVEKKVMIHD

Compound: CN1[C@@H]2CC[C@H]1C[C@@H](OC(=O)C(CO)c1ccccc1)C2 (stereo partly shown) [atropine]
- blockade of the cAMP-reducing effect of Compound 32 [1]: the effect was blocked

Compound: COc1cc2c(cc1OC)CN(/C=N/c1ccc3c(c1)C(O)CC3)CC2 (stereo not shown) [Compound 32]
- Ki (human 5-HT7 receptors): 0.4 µM
- Ki [2]: 0.32 µM
- Ki (human D2 membrane): > 300 µM
- reduction of c-AMP levels (agonist activity) [1]: able to reduce cAMP levels
- Line Crossings (mean ± S.E.) ([3]; dose 1 mg/kg, i.p.): 98.8 ± 7.3
- Line Crossings (mean ± S.E.) ([3]; dose 3 mg/kg, i.p.): 89.6 ± 13.3
- Line Crossings (mean ± S.E.) ([3]; dose 10 mg/kg, i.p.): 45.6 ± 8.3
- effect on amphetamine-induced hyperactivity ([3]; rats, i.p., 30 min before amphetamine): suppressed the hyperactivity in a dose-dependent manner
- ED50, suppression of amphetamine-induced hyperactivity ([3]; rats, amphetamine 1.0 mg/kg i.p., 95% confidence limits, estimated): 8.1 (95% confidence limits; 4.4-15) mg/kg, i.p.

Compound: O=C1CCCN1CC#CCN1CCCC1 [oxotremorine]
- reduction of c-AMP levels (agonist activity) [1]: showed the ability to reduce c-AMP levels

Compound: Cc1cccc(S(=O)(=O)N2CCC[C@@H]2CCN2CCC(C)CC2)c1 [SB258741, R-(+)-1-(toluene-3-sulfonyl)-2-[2-(4-methylpiperidin-1-yl)ethyl]pyrrolidine]
- effect on apomorphine-induced disruption of PPI [4]: Neither PTAC nor SB25871 alone affect the disruption induced by apomorphine

Compound: CCCSc1nsnc1[C@H]1CN2CCC[C@H]1C2 [PTAC, (5R,6R)6-(3-propylthio-1,2,5-thiadiazol-4-yl)-1-azabicyclo(3.2.1)octane]
- effect on apomorphine-induced disruption of PPI [4]: Neither PTAC nor SB25871 alone affect the disruption induced by apomorphine

Compound: OC1CCc2ccc(/N=C/N3CCc4ccccc4C3)cc21 (stereo not shown) [Compound 34, 6-[(3,4-dihydro-1H-isoquinolin-2-ylmethylene)-amino]-indan-1-ol]
- Ki (human 5-HT7 receptors): 2.7 µM
- Ki [2]: 2.8 µM
- Ki (human D2 membrane): > 300 µM

Compound: O=C(CCCN1CCC(O)(c2ccc(Cl)cc2)CC1)c1ccc(F)cc1 [haloperidol]
- effect on PCP-induced hypofunction (chronic PCP-treated rats [5]; auditory structures, reported previously (Cochran et al., 2003)): reversed the PCP-induced hypofunction
- effect on PCP-induced metabolic hypofunction (chronic PCP-treated rats [5]; prelimbic region of the prefrontal cortex, shown previously (Cochran et al., 2003)): failed to reverse
- effect on PCP-induced hypofunction (chronic PCP-treated rats [5]; reticular nucleus of the thalamus, shown previously (Cochran et al., 2003)): failed to reverse
- effect on PCP-induced metabolic hypofunction (LCGU) (chronic PCP-treated rats [6]; prelimbic region of the prefrontal cortex, chronic treatment): not by haloperidol or clozapine
- effect on PCP-reduced local glucose utilisation (chronic PCP-treated rats [6]; ventral lateral lemniscus, chronic treatment (FIG. 4)): only partially restores the hypofunction
- effect on PCP-reduced local glucose utilisation (chronic PCP-treated rats [6]; ventral reticular thalamic nucleus, chronic treatment (FIG. 3)): not by haloperidol or clozapine
